Marks after values point to notes of the source that are not given here.
Legend:
[1] = Nitrate content in the blood of mice after single gastric gavage; format: in vivo; settings: ICR mice, 2 mmol/kg sodium nitrate single gastric gavage
Protocol: A total of 40 ICR mice (male, 20±4 g) were randomly divided into 4 groups of 10 mice each. […] Blood was collected from vena caudalis at 0 h, and 2, 4, 6, 12, and 24 h after gastric gavage, respectively.

[2] = system: human submandibular gland epithelial cell line (HSG); test: RTCA cell proliferation after single X-ray irradiation with drugs; format: cell-based; settings: Table 5 and FIG. 7
From the text: 2) The proliferation plate were taken out, and the medium was refreshed. […] The cells were subjected to single X-ray (RAD SOURCE 2000) irradiation at a dose of 1.22 gy/min and a total dose of 2 gy.
3) After irradiation, detection was continuously carried out.

[3] = system: submandibular gland acinar cells; test: Vacuole area in submandibular gland acinar cells (HE staining); format: in vivo; settings: SD rats, high dose 40.5 mM, 8 weeks after radiotherapy
From the text: At 8 weeks after radiotherapy, the micrographs (×40) of the HE stained submandibular gland tissues of the rats in each experimental group were shown in FIG. 9A on the right of the panel of FIG. 9. See FIG. 9B on the left of the panel of FIG. 9.

[4] = system: AQP5; test: AQP5 expression level in submandibular gland acinar cells (immunofluorescence); format: in vivo; settings: SD rats, 8 weeks after radiotherapy
From the text: The immunofluorescence staining photographs (×20 under microscope) of the paraffin sections of the submandibular gland of the rats in each experimental group at 8 weeks after radiotherapy, and the quantitation results of the expression levels of AQP5 in the submandibular gland acinar cells in each group were shown in FIG. 10 and Table 8.

[5] = Nitrate content in saliva of rats after radiotherapy; format: in vivo; settings: SD rats, 4 and 8 weeks after radiotherapy
[6] = system: rat salivary gland; test: Salivary flow rate of rats before and after radiotherapy; settings: SD rats
[7] = Serum biochemical detection at 8 weeks after radiotherapy; settings: SD rats, 8 weeks after submandibular gland irradiation
[8] = system: human submandibular gland epithelial cell line (HSG); test: RTCA cell proliferation after addition of drugs (no irradiation); settings: microcapsules 0.25 mM, nitrate 0.5 mM
[9] = HE staining of sections of major organs (heart, liver, spleen, lung, kidney); settings: SD rats
[10] = high dose 40.5 mM in drinking water
[11] = low dose 20.25 mM in drinking water

For O=[N+]([O-])[O-].[Na+] [Sodium nitrate, sodium nitrate], the “Nitrate content in the blood” value ([1]; 0 h) was 41.8 µmol/L, the “Nitrate content in the blood” value ([1]; 2 h) was 1052.8 µmol/L and the “Nitrate content in the blood” value ([1]; 4 h) was 572.4 µmol/L. For the same compound, the “Nitrate content in the blood” value ([1]; 6 h) was 297.4 µmol/L, the “Nitrate content in the blood” value ([1]; 12 h) was 45.3 µmol/L and the “Nitrate content in the blood” value ([1]; 24 h) was 32.7 µmol/L. The “effect on proliferation of submandibular gland epithelial cells after single irradiation” value [2] was “promote the proliferation”, the “vacuole area in submandibular gland acinar cells as compared with IR group” value [3] was “significantly decreased” and the “expression level of AQP5 versus IR group” value ([4]; high dose 40.5 mM) was “significantly different”. For the same compound, the “expression level of AQP5 versus IR group” value ([4]; low dose 20.25 mM) was “significantly different”, the “nitrate content in saliva, course after administration” value [5] was “relatively stable” and the salivary flow rate ([6]; high dose 40.5 mM in drinking water, 1 W after radiotherapy) was 0.48 ± 0.25 ml/20 min. The salivary flow rate ([6]; high dose 40.5 mM in drinking water, 2 W after radiotherapy) was 1.12 ± 0.20^a ml/20 min, the salivary flow rate ([6]; high dose 40.5 mM in drinking water, 4 W after radiotherapy) was 0.91 ± 0.17^a ml/20 min and the salivary flow rate ([6]; high dose 40.5 mM in drinking water, 6 W after radiotherapy) was 0.80 ± 0.09^a ml/20 min. The salivary flow rate ([6]; high dose 40.5 mM in drinking water, 8 W after radiotherapy) was 0.81 ± 0.13 ml/20 min, the salivary flow rate ([6]; high dose 40.5 mM in drinking water, first column 1 W (1 week before radiotherapy)) was 1.37 ± 0.24 ml/20 min and the salivary flow rate ([6]; low dose 20.25 mM in drinking water, 1 W after radiotherapy) was 0.60 ± 0.25 ml/20 min. The salivary flow rate ([6]; low dose 20.25 mM in drinking water, 2 W after radiotherapy) was 0.95 ± 0.01^a ml/20 min, the salivary flow rate ([6]; low dose 20.25 mM in drinking water, 4 W after radiotherapy) was 0.82 ± 0.21^a ml/20 min and the salivary flow rate ([6]; low dose 20.25 mM in drinking water, 6 W after radiotherapy) was 0.74 ± 0.12 ml/20 min. For the same compound, the salivary flow rate ([6]; low dose 20.25 mM in drinking water, 8 W after radiotherapy) was 0.76 ± 0.09 ml/20 min, the salivary flow rate ([6]; low dose 20.25 mM in drinking water, first column 1 W (1 week before radiotherapy)) was 1.34 ± 0.26 ml/20 min and the ALP [7, 10] was 112.00 ± 19.69 U/L. It also gave an ALT [7, 10] of 49.20 ± 10.30 U/L, an AST [7, 10] of 116.20 ± 9.44 U/L and an Alb [7, 10] of 8.66 ± 0.87 g/L. It also gave a Ca [7, 10] of 2.41 ± 0.14 mmol/L, a Cr [7, 10] of 46.7 ± 14.59 µmol/L and a D-Bil [7, 10] of 1.8 ± 1.21 µmol/L. It also gave a GGT [7, 10] of 5.00 ± 0.71 U/L, a Glb [7, 10] of 45.42 ± 3.88 g/L and an HDL-C [7, 10] of 2.09 ± 0.43 mmol/L. For the same compound, the I-Bil [7, 10] was 1.73 ± 1.57 µmol/L, the K [7, 10] was 5.10 ± 0.45 mmol/L and the LDH [7, 10] was 747.40 ± 165.67 U/L. It also gave an LDL-C [7, 10] of 0.24 ± 0.06 mmol/L, a Na [7, 10] of 141.66 ± 1.62 mmol/L and a P [7, 10] of 2.77 ± 1.01 mmol/L. The T-Bil [7, 10] was 3.52 ± 2.00 µmol/L, the TC [7, 10] was 1.87 ± 0.38 mmol/L and the TCO2 [7, 10] was 30.12 ± 3.07 mmol/L. The TG [7, 10] was 0.31 ± 0.38 mmol/L, the TP [7, 10] was 54.08 ± 4.11 g/L and the Urea [7, 10] was 5.78 ± 1.21 mmol/L. For the same compound, the ALP [7, 11] was 95.00 ± 52.85 U/L, the ALT [7, 11] was 46.60 ± 16.80 U/L and the AST [7, 11] was 123.80 ± 38.49 U/L. For the same compound, the Alb [7, 11] was 8.20 ± 1.32 g/L, the Ca [7, 11] was 2.39 ± 0.09 mmol/L and the Cr [7, 11] was 47.82 ± 12.95 µmol/L. It also gave a D-Bil [7, 11] of 1.43 ± 0.40 µmol/L, a GGT [7, 11] of 5.60 ± 0.89 U/L and a Glb [7, 11] of 44.68 ± 1.80 g/L. For the same compound, the HDL-C [7, 11] was 2.13 ± 0.71 mmol/L, the I-Bil [7, 11] was 1.43 ± 1.07 µmol/L and the K [7, 11] was 5.31 ± 0.48 mmol/L. The LDH [7, 11] was 1212.44 ± 728.19 U/L, the LDL-C [7, 11] was 0.27 ± 0.06 mmol/L and the Na [7, 11] was 140.72 ± 1.47 mmol/L. For the same compound, the P [7, 11] was 2.37 ± 0.22 mmol/L, the T-Bil [7, 11] was 2.52 ± 1.37 µmol/L and the TC [7, 11] was 2.05 ± 0.71 mmol/L. The TCO2 [7, 11] was 30.26 ± 2.68 mmol/L, the TG [7, 11] was 0.57 ± 0.42 mmol/L and the TP [7, 11] was 52.88 ± 2.40 g/L. For the same compound, the “effect on proliferation of submandibular gland epithelial cells under normal conditions” value [8] was “promote the proliferation”, the “effect on the organs in the body of the rats” value ([9]; continuous administration of 40.5 mM for 9 weeks) was “no significant effect” and the “abnormality in the major organs, HE stained sections” value ([9]; high dose 40.5 mM, 8 weeks after radiotherapy, FIG. 12) was “no abnormality”.

In the case of O=C1O[C@H]([C@@H](O)CO)C(O)=C1O [Vc, vitamin C], the “effect on proliferation of submandibular gland epithelial cells after single irradiation” value [2] is reported as “promote the proliferation”.

— patent US20250228785A1, “MICROCAPSULE, PREPARATION METHOD THEREFOR, AND USE THEREOF IN PREVENTING AND/OR TREATING DAMAGE TO SALIVARY GLANDS CAUSED BY RADIATION THERAPY” (CAPITAL MEDICAL UNIVERSITY, priority 2021, published 2025)
